Experimental findings from the pKa sets of Baltruschat and Czodrowski (2020) are described below.

Usually pKa stands for the negative logarithm of the acid dissociation constant.

`[O-]c1c(Cl)cc(Cl)c(Cl)c1CN1CCOCC1` showed a pKa (basic group) of 8.83.

`Nc1ccc(N)c(N)c1` had a pKa (basic group) of 6.1.

Where the note is “basic group”, `N[C@@H](CCCCN1C(=O)C[C@H](N)C1=O)C(=O)[O-]` registered a pKa of 9.5.

With `CC(C)CC([NH3+])C(=O)O` (stereo unspecified), the pKa (acidic group) was 2.46.

Regarding `C[C@H]1CC[C@H]2[C@H](C)CC[C@@H](C(=O)[O-])N2C1`, the pKa (basic group) is 10.8.

On to `c1ccc(-c2nc3ccccc3[nH]2)nc1`, for which the pKa is 12.1 (acidic group) and 4.41 (basic group).

Under “basic group”, `Nc1cnnc2ccccc12` gave a pKa of 6.84.

Regarding `O=C(O)CCc1ccco1`, where the note is “acidic group”, the pKa was 4.36.

For the compound `OB(O)CCc1ccccc1`, the pKa (acidic group) was determined as 10.

Compound `[NH3+]CC(=O)NCC(=O)NCC(=O)N1CCC[C@H]1C(=O)O` displayed a pKa (acidic group) of 2.91.

As for `N#CC(C#N)=NNc1ccccc1Cl`, the pKa is 5.84 (acidic group) and -0.77 (basic group).

Take `S=C(Nc1ccc(Br)cc1)c1cccc(Br)c1`: for the setting “acidic group”, the pKa was determined as 9.96.

Take `Cc1ccc2c(c1O)-c1c-2ccc(C)c1O`: where the note is “acidic group”, the pKa amounted to 8.04.

With `[O-]c1nc(S)c2[nH]cnc2n1`, where the note is “acidic group”, the pKa worked out at 11.4.

Compound `Cc1cc(O)ccc1C(=O)O` returned a pKa (acidic group) of 4.71.

Consider `O=C(CCl)CCl`, for which the pKa (basic group) was found to be 11.

Regarding `CC(CN(C)C)N(C)C` (stereo unspecified), the pKa (basic group) stood at 9.49.

In the case of `CCC(CC)C1(CC)C(=O)[N-]C(=S)NC1=O`, where the note is “acidic group”, the pKa came to 12.4.

`CCOCCn1c(N2CCC[NH+](CCCCn3cc(C(=O)[O-])cn3)CC2)nc2ccccc21` came in with a pKa (basic group) of 5.1.

As for `CSC(=N)N`, the pKa (basic group) worked out at 9.83.

In the case of `O=C(O)C#CBr`, the pKa (acidic group) stood at 1.9.

As to `COc1cc2ccc(=O)oc2cc1O`, the pKa (acidic group) turned out to be 6.5.

`O=C1C[C@@H](C(=O)O)[C@@H](C(=O)[O-])O1` had a pKa (acidic group) of 4.5.

Regarding `O=C(O)Cc1[nH]c2ccccc2[nH+]1`, the pKa is, setting by setting: (acidic group) 0.2; (basic group) -4.7.

With `C[NH+](C)CCC/N=C(\c1ccccc1)c1ccccc1O`, the pKa (basic group) was 3.31.

The compound `N#CCc1ccc(C(=O)O)cc1` gave a pKa (acidic group) of 4.09.

`CC[NH+]1CCC[C@@H]1CNC(=O)c1c(OC)ccc([N+](=O)[O-])c1O`: the pKa (acidic group) was 5.75.

In turn, `O=S(=O)(Nc1ncccn1)c1ccc(O)cc1` showed a pKa (acidic group) of 6.37.

Under “basic group”, `Cn1cc[nH+]c1-c1ccccn1` returned a pKa of 0.4.

On to `[O-]c1cccnc1`, for which the pKa (basic group) was found to be 8.6.

For the setting “basic group”, `Cc1c[nH]c(C)c1` gave a pKa of 2.04.

The compound `COc1ccc(-c2nc3cnccc3[nH]2)c(OC)c1` came in with a pKa (basic group) of 6.49.

For `CCNN(CC)CC`, the pKa (basic group) turned out to be 7.08.

Consider `C/C(=C\C=C\C(C)C(=O)O)[C@H]1C[NH2+][C@H](C(=O)[O-])[C@H]1CC(=O)O` (stereo partly specified), for which the pKa (acidic group) came out at 3.72.

As for `COc1ccc2c3c1O[C@H]1[C@@H](O)C=C[C@H]4[C@@H](C2)N(C)CC[C@@]341`, the pKa (basic group) came to 8.05.

Take `O=C(c1ccccc1)n1cnc2ccccc21`: for the setting “basic group”, the pKa came out at 1.8.

Compound `Cn1ccc(=N)c2ccccc21` had a pKa (basic group) of 12.4.

In the case of `C1CCN(N2CCCC2)C1`, the pKa (basic group) amounted to 7.16.

With `Nc1ccc(S(=O)(=O)Nc2ccc(Br)nc2)cc1`, for the setting “acidic group”, the pKa was 7.12.

`c1nc[nH]n1` registered a pKa (basic group) of 2.5.

Turning to `CN(C)c1cccc2c(S(=O)(=O)NCC(=O)[O-])cccc12`, under “acidic group”, the pKa stood at 11.7.

`CCN(CCO)c1ccc(N)cc1` came in with a pKa (basic group) of 7.12.

`CC(C)(C)C1C(=O)NC(=O)NC1=O`: the pKa (acidic group) is 7.98.

Under “acidic group”, `Oc1ccc2cc(I)ccc2c1` yielded a pKa of 9.23.

Compound `N[C@H]1CCCC[C@@H]1C(=O)[O-]` registered a pKa (basic group) of 10.1.

`COc1cccc2ccc(C)nc12`: the pKa (basic group) was found to be 5.69.

Consider `CC[C@@H]1C(=O)OC[C@H]1Cc1cncn1C`, for which the pKa (basic group) is 7.17.

`NNCCO`: the pKa (basic group) is 7.12.

Take `O=Cc1cccc(B(O)O)c1`: the pKa (acidic group) is 7.8.

`C[NH+](C)CCCN=C(c1ccccc1)c1ccccc1` gave a pKa (basic group) of 5.2.

Take `[O-]B(O)c1cccc(O)c1`: the pKa (acidic group) came to 10.8.

Regarding `C[NH+]1CCC[C@H]1c1cccnc1`, the pKa (basic group) came to 3.16.

For the compound `CCCCCCCCN(CC(C)O)CC(O)CC` (stereo unspecified), the pKa (basic group) turned out to be 8.1.

Take `NC(=O)C([NH3+])Cc1c[nH]cn1` (stereo unspecified): the pKa (basic group) came to 5.78.

Under “acidic group”, `CCCCCCCCCCCCCC(=O)N(O)c1ccccc1` yielded a pKa of 9.05.

`CN1CCC(NNc2ccccc2)CC1` came in with a pKa (basic group) of 8.7.

The compound `C#C[C@]1(O)C[C@@H](C)N[C@@H]2CCCC[C@H]21` had a pKa (basic group) of 9.73.

Turning to `CC(=O)CC(=O)Nc1ccc(C)cc1`, the pKa (acidic group) came to 10.2.

For `C/C(=N\c1ccccc1)Nc1ccccc1`, for the setting “basic group”, the pKa was 8.3.

In turn, `CCCCCCN(CCO)CC(C)O` (stereo unspecified) yielded a pKa (basic group) of 9.

In the case of `Cc1cnc([O-])nc1N`, for the setting “basic group”, the pKa was 12.4.

Turning to `CCCC(=O)OCCN(C)C`, the pKa (basic group) was determined as 8.31.

Regarding `CCCN1C=CC(=CC=C2C=CC(=O)C=C2)C=C1`, the pKa (basic group) amounted to 8.5.

As to `COc1cc(S(C)=O)ccc1-c1nc2ccnnc2[nH]1` (stereo unspecified), the pKa is, setting by setting: (acidic group) 8.7; (basic group) 3.63.

For the compound `Nc1ccc2[nH]cnc2c1`, the pKa (basic group) was determined as 6.11.

Regarding `CN(C)CCCN(C)CCCN(C)C`, the pKa (basic group) was 10.

For `C[NH+](C)CCc1c[nH]c2cccc(O)c12`, the pKa (acidic group) was 8.47.

Compound `Nc1ccnc(-c2cccc(Cl)n2)c1` displayed a pKa (basic group) of 7.7.

For the compound `OCCNc1nc(NCCO)nc(NCCO)n1`, the pKa (basic group) worked out at 5.19.

In the case of `O=C(O)c1cccc([N+](=O)[O-])c1O`, under “acidic group”, the pKa was found to be 2.16.

The compound `COC1=CC=C2[C@@H]3Cc4ccc(OC)c5c4[C@]2(CCN3C)[C@@H]1O5` yielded a pKa (basic group) of 8.15.

As for `C=C(C)C(=O)OCCN(CC)CC`, the pKa (basic group) amounted to 8.66.

Take `Oc1ccc2cnncc2c1`: the pKa is, setting by setting: (acidic group) 7.95; (basic group) 3.94.

For the setting “basic group”, `Cc1ccc(N)cc1-c1cc(N)ccc1C` yielded a pKa of 5.

As to `CN1CSC[C@H]1C(=O)[O-]`, the pKa (basic group) was 6.6.

Regarding `c1cncc([C@@H]2CCCCN2)c1`, the pKa (basic group) was determined as 4.01.

Compound `Oc1cccc(Cl)c1Cl` registered a pKa (acidic group) of 7.71.

On to `CC(=O)c1ccc(NS(=O)(=O)c2ccccc2)cc1`, for which the pKa (acidic group) was 6.94.

As to `Cc1cc(O)nn1-c1ccccc1C(=O)N1CCCCC1`, the pKa (acidic group) amounted to 12.4.

With `O=C(Nc1ccccn1)c1ccccc1`, where the note is “basic group”, the pKa came to 3.33.

As for `CS(=O)(=O)c1ccc(NS(=O)(=O)C(F)(F)F)cc1`, the pKa (acidic group) turned out to be 2.84.

For the setting “acidic group”, `CC(=O)CC(N)=O` displayed a pKa of 10.4.

Regarding `CCC(C)(N)CC`, the pKa (basic group) was determined as 10.9.

As to `Cc1cc2nc3ccc(N(C)C)cc3[nH+]c2cc1N`, for the setting “basic group”, the pKa worked out at 0.2.

Compound `CCOO` showed a pKa (acidic group) of 11.8.

In turn, `CC(C)N/C=N/c1ccc(-c2cncn2C)cc1` came in with a pKa (basic group) of 8.83.

`Cc1nc2cncnc2nc1C` returned a pKa (basic group) of 2.93.

As to `CC[NH+](C)CCCNC(=O)/C=N/O`, the pKa (acidic group) is 8.72.

In the case of `[S-]c1ncnc2nccnc12`, for the setting “basic group”, the pKa was found to be 6.81.

The compound `CC(C)(S)C(C(=O)O)n1cc[nH+]c1Cc1ccccc1` (stereo unspecified) displayed a pKa (acidic group) of 1.8.

The compound `Cc1cc(C)n(Cc2cc(C)n(C)n2)[nH+]1` displayed a pKa (basic group) of 0.6.

Where the note is “acidic group”, `c1ccc(CNc2nnc(-c3ccccc3)s2)cc1` yielded a pKa of 11.5.

`NC(=S)C(N)=S`: the pKa (acidic group) is 10.9.

Turning to `C(=N\c1ccccc1)/Nc1ccccc1`, the pKa (basic group) amounted to 6.3.

`O=c1ccc(O)c(Br)cc1` showed a pKa (acidic group) of 4.9.

The compound `CN(C)CC[Se-]` came in with a pKa (basic group) of 10.8.
